# From article PMC6100724, “Proteome‐wide analysis of phospho‐regulated PDZ domain interactions” (Molecular Systems Biology, 2018)
# Tests used:
# Test in all cases: Phosphomimetic ProP-PD selection with NGS
# Scribble PDZ1 = target: T1, Scribble PDZ1 (Homo sapiens, UniProt Q14160); assay type: binding; details: bait Scribble PDZ1; mean of selections 1-3
# T1 construct: human Scribble PDZ1 aa 719–829 in; made in house; host or cells: E. coli BL21 Gold (DE3)
# Protocol: (§1) Phage selections were carried out for four rounds following a protocol by Huang and Sidhu (Huang & Sidhu, 2011) with minor modifications. Non‐specific binding phage was removed by pre‐selections against immobilized GST throughout the selection. The selections against the (pre‐)phosphorylated wild‐type library were performed in 50 mM HEPES (pH 7.4) and 150 mM NaCl (HBS) following the same procedure after pre‐phosphorylation of the library.
# (§2) • Immobilize proteins (15 μg in 100 μl PBS) in a 96‐well MaxiSorp microtiter plate (NUNC) overnight at 4°C. • Start a 2YT culture of E. coli Omnimax supplemented with 100 μg/ml tetracycline to retain the F pilus epitope. • Block the wells with 200 μl 0.5% BSA in PBS for 2 h at 4°C. • Precipitate naïve phage library (10^11 cfu per selection) or amplified phage pool from the previous round of selection by adding one‐fifth the volume of PEG/NaCl. • Incubate on ice for 10 min, and pellet precipitated phage by centrifugation at 5,300 g for 15 min. Resuspend the phage pellet in 100 μl PBS per selection. • Add 100 μl of phage solution to the GST‐coated pre‐selection wells and incubate for 1 h. • Transfer the phage solution to the immobilized target proteins and allow it to bind for 2 h at 8°C. • Wash the plate four times with 200 μl cold wash buffer (PBS, 0.05% Tween‐20). • Elute bound phage by incubation with 100 μl log phase (0.6–0.8 OD600) E. coli Omnimax for 30 min at 37°C with shaking (200 RPM). • Add 10^12 cfu/ml M13K07 helper phage for hyperinfection of the bacteria and incubate as above for 45 min. • Transfer the bacterial culture to 10 ml 2YT supplemented with 50 μg/ml carbenicillin, 25 μg/ml kanamycin, and 300 μM IPTG and incubate overnight at 37°C while shaking. • Perform phage pool ELISA to monitor the progress of the selection as described previously (Huang & Sidhu, 2011).
# (§3) The naïve library and the enriched phage pools of the third day of selection were amplified and barcoded by PCR and analyzed by NGS as described elsewhere (McLaughlin & Sidhu, 2013; Ivarsson et al, 2014). The reads were demultiplexed using the barcode sequences and filtered by discarding sequences with a Phred quality score under 30. Sequences were mapped to the original library using Bowtie (Langmead et al, 2009) with two mismatches between reads and library sequence. Nucleotide mutations leading to amino acid substitutions were subsequently removed. Cutoff values of NGS counts were assigned for each pool. PWMs were generated based on the remaining peptides (aligned on the C‐termini) using WebLogo (Crooks et al, 2004).
# (§4) However, there was no significant correlation of the actual read counts (selection “strength”) and the initial representation in the library, reflecting the strong selection during phage display (wt+mimetic: P‐value: 0.49, ρ = −0.08, mimetic only: P‐value: 0.069, ρ = −0.2, wt only: P‐value: 0.12, ρ = 0.17). Consequently, the amount of reads for each binder after phage display is not a function of the amount of input reads in the naïve library and no modeling based on the input library frequencies to score the interactions is necessary. To allow for comparison between replicate selections, we used the fraction of NGS reads within a certain set, instead of the absolute number of NGS reads, as the absolute numbers differ between different NGS batches.
# Scribble PDZ3 = assay type: binding, human; details: bait Scribble PDZ3
# Protocol: as §1, §2, §3, §4
# DLG1 PDZ2 = target: T2, DLG1 PDZ2 (Homo sapiens, UniProt Q12959); assay type: binding; details: mean of selections 1-3, bait DLG1 PDZ2
# T2 construct: human DLG1 PDZ2 aa 311–407 in a modified pRSET vector 40; made in house; host or cells: E. coli BL21 Gold (DE3)
# T2 sequence (Q12959 311-407): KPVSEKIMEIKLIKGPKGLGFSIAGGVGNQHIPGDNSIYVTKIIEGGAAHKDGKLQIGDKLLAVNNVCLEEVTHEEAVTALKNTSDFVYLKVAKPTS
# Protocol: as §1, §2, §3, §4
# [1] = mean of selections 1-3, phosphomimetic peptide
# [2] = mean of selections 1-3, wild type peptide
# T1 sequence (Q14160 719-829): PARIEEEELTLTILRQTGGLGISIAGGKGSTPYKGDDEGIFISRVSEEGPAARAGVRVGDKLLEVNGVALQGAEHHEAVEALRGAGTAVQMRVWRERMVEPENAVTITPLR
sequence,measurement,setting,value
DKEEFLTWL,Mean fraction #NGS counts mimetic peptide / total count selection,Scribble PDZ1,0
same,Mean fraction #NGS counts mimetic peptide / total count selection,Scribble PDZ3; mean over selections 1-3,0.0001294
DKESFLTWL,Mean fraction #NGS counts wt peptide / total counts selection,Scribble PDZ1,0.000274
same,Mean fraction #NGS counts wt peptide / total counts selection,Scribble PDZ3; mean over selections 1-3,0.01024
DSEILETVV,Mean fraction #NGS counts mimetic peptide / total count selection,DLG1 PDZ2,0
DSSILSTVV,Mean fraction #NGS counts wt peptide / total counts selection,DLG1 PDZ2,0.0001102
EIDLWETAL,Mean fraction #NGS counts mimetic peptide / total count selection,Scribble PDZ3; mean over selections 1-3,0.0004512
EPTVHVTEL,Mean fraction #NGS counts mimetic peptide / total count selection,Scribble PDZ1,0.0001138
same,Mean fraction #NGS counts mimetic peptide / total count selection,Scribble PDZ3; mean over selections 1-3,1.586e-5
ERLEYEETL,Mean fraction #NGS counts mimetic peptide / total count selection,Scribble PDZ3; mean over selections 1-3,0
ERLEYETEL,Mean fraction #NGS counts mimetic peptide / total count selection,Scribble PDZ3; [1],3.548e-5
ERLEYETTL,Mean fraction #NGS counts wt peptide / total counts selection,Scribble PDZ3; [2],0.0004529
same,Mean fraction #NGS counts wt peptide / total counts selection,Scribble PDZ3; mean over selections 1-3,0.0004529
GEGGRQSVV,Mean fraction #NGS counts mimetic peptide / total count selection,DLG1 PDZ2; phosphomimetic peptide,9.343e-5
GLMKRRSEV,Mean fraction #NGS counts mimetic peptide / total count selection,DLG1 PDZ2,6.06e-5
GLMKRRSSV,Mean fraction #NGS counts wt peptide / total counts selection,DLG1 PDZ2,0
GSGGRQSVV,Mean fraction #NGS counts wt peptide / total counts selection,DLG1 PDZ2; wild type peptide,0.003121
HEIKQETAV,Mean fraction #NGS counts mimetic peptide / total count selection,DLG1 PDZ2,0.0002182
HEIKQSTAV,Mean fraction #NGS counts mimetic peptide / total count selection,DLG1 PDZ2; phosphomimetic peptide,0
HEKVFESAL,Mean fraction #NGS counts mimetic peptide / total count selection,Scribble PDZ1,0.0004614
same,Mean fraction #NGS counts mimetic peptide / total count selection,Scribble PDZ3; mean over selections 1-3,0.07851
HEKVFTSAL,Mean fraction #NGS counts wt peptide / total counts selection,Scribble PDZ1,0
same,Mean fraction #NGS counts wt peptide / total counts selection,Scribble PDZ3; mean over selections 1-3,0.0001136
HFESLESEV,Mean fraction #NGS counts mimetic peptide / total count selection,DLG1 PDZ2,0
HFSSLESEV,Mean fraction #NGS counts wt peptide / total counts selection,DLG1 PDZ2,5.084e-5
IEFTQTEQF,Mean fraction #NGS counts mimetic peptide / total count selection,DLG1 PDZ2,0.001455
IEWLAFSVL,Mean fraction #NGS counts mimetic peptide / total count selection,Scribble PDZ1,4.38e-5
IPLTRETTF,Mean fraction #NGS counts mimetic peptide / total count selection,Scribble PDZ3; mean over selections 1-3,0.0004175
IPLTRTTTF,Mean fraction #NGS counts wt peptide / total counts selection,Scribble PDZ3; mean over selections 1-3,0
ISFTQTSQF,Mean fraction #NGS counts wt peptide / total counts selection,DLG1 PDZ2,6.749e-6
ISWLAFSVL,Mean fraction #NGS counts wt peptide / total counts selection,Scribble PDZ1,0
ISYRREEAI,Mean fraction #NGS counts mimetic peptide / total count selection,Scribble PDZ3; mean over selections 1-3,0
ISYRRESAI,Mean fraction #NGS counts mimetic peptide / total count selection,DLG1 PDZ2,0
same,Mean fraction #NGS counts wt peptide / total counts selection,DLG1 PDZ2,1.436e-5
same,Mean fraction #NGS counts wt peptide / total counts selection,Scribble PDZ3; mean over selections 1-3,0.0002548
KEEPFLTWL,Mean fraction #NGS counts mimetic peptide / total count selection,Scribble PDZ3; mean over selections 1-3,0.001054
KKRMVEEPL,Mean fraction #NGS counts mimetic peptide / total count selection,Scribble PDZ3; mean over selections 1-3,0
KKRMVESPL,Mean fraction #NGS counts wt peptide / total counts selection,Scribble PDZ3; mean over selections 1-3,0.000138
KLSEIESDV,Mean fraction #NGS counts mimetic peptide / total count selection,DLG1 PDZ2,0
same,Mean fraction #NGS counts mimetic peptide / total count selection,Scribble PDZ3; mean over selections 1-3,6.057e-6
KSEPFLTWL,Mean fraction #NGS counts wt peptide / total counts selection,Scribble PDZ3; mean over selections 1-3,0.002017
KYVDAETEL,Mean fraction #NGS counts mimetic peptide / total count selection,Scribble PDZ3; [1],0.0004194
KYVDAETSL,Mean fraction #NGS counts wt peptide / total counts selection,Scribble PDZ3; [2],0.0001259
LAPNIIEQL,Mean fraction #NGS counts mimetic peptide / total count selection,Scribble PDZ1,2.8202e-5
LAPNIISQL,Mean fraction #NGS counts wt peptide / total counts selection,Scribble PDZ1,0.000119
LKSGRDSTV,Mean fraction #NGS counts mimetic peptide / total count selection,DLG1 PDZ2,0
same,Mean fraction #NGS counts wt peptide / total counts selection,DLG1 PDZ2,0.0003449
LRLQSETEV,Mean fraction #NGS counts mimetic peptide / total count selection,DLG1 PDZ2,7.62e-5
LRLQSETSV,Mean fraction #NGS counts wt peptide / total counts selection,DLG1 PDZ2,3.877e-6
LSIEKEEKL,Mean fraction #NGS counts mimetic peptide / total count selection,Scribble PDZ3; mean over selections 1-3,3.894e-6
LSIEKETKL,Mean fraction #NGS counts wt peptide / total counts selection,Scribble PDZ3; mean over selections 1-3,0.01518
MKRLTETRL,Mean fraction #NGS counts mimetic peptide / total count selection,Scribble PDZ1,0.01768
same,Mean fraction #NGS counts mimetic peptide / total count selection,Scribble PDZ3; mean over selections 1-3,0.001041
